Assay results published in US4885299A, “2-(2,3-dihydro-2-oxo-3-benzofuranyl)acetic acids antihypoxic and nootropic effects having” (ADIR Et Cie, priority 1987, dated 1989).
Structures can show the parent of a compound that is named as a salt. Where two headings read alike, the source gives them in different places.

Tests used:
[1] = system: Acute hypoxia in mice; survival of the brain; assay: Acute hypoxia in mice (hypobaric); brain survival time to final respiratory gasp; assay type: in vivo, Male CD1 mice (Charles River)
Protocol: (§1) The compounds of the present invention were tested in respect of their capacity to prolong the survival of cerebral tissue during acute hypoxia in mice, or to maintain the level of tissue energy-rich compounds in rats subjected to a fall in the oxygen supply [Pharmacology of Cerebral Ischemia, p. 334-339 (1968) Elsevier Science Publishers B.V., J. Krieglstein ed.]. […] Forsch. Drug. Res. (1986), 36 II No. 9, p. 1314-1320].
The survival of the brain is assessed by measuring the time at which the final respiratory gasp is observed.
The survival time of a treated batch is compared with that of a control batch receiving only the solvent.
The percentage increase in the survival time after the animals are treated with the compounds of the invention is shown in Table II.

[2] = system: brain energy-rich compounds (ATP, ADP, AMP); assay: Acute hypoxia in rats; protection of tissue energy-rich compounds in brain (ATP, energy content); assay type: in vivo, Male Fischer 344 rats (Charles River); conditions: for % inhibition of the effects of hypoxia, ATP / % inhibition of the effects of hypoxia, EC (tissue energy content): 3% oxygen for 2 minutes; for antihypoxic effect / protection in words: 300 mg/kg
Protocol: as §1
Whereas the control rats breath a gaseous mixture containing 21% of oxygen and 79% of nitrogen, the rats subjected to hypoxia breath a mixture of 3% oxygen and 97% nitrogen for 2 minutes.
At the end of the hypoxic period, the animals are rapidly sacrificed by total immersion in liquid nitrogen. The frozen brain is removed and the energy-rich compounds (ATP, ADP, AMP) are extracted and assayed by the luciferin luminescence method.
The tissue energy content (EC) is calculated according to ATKINSON's formula: [formula]

[3] = Mus musculus, ip, 30 mg/kg I.P., 30 minutes before hypoxia, mice, read-out: Percentage increase in the survival time
[4] = Mus musculus, ip, 100 mg/kg I.P., 30 minutes before hypoxia, mice, read-out: Percentage increase in the survival time
[5] = 100 mg/kg I.P., 30 minutes before hypoxia, mice
[6] = Mus musculus, ip, read-out: Percentage increase in the survival time
[7] = 100 mg/kg I.P., listed as pyritinol

SMILES | change in vivo at 30 mg/kg [1, 3] | change in vivo at 100 mg/kg [1, 4] | % inhibition of the effects of hypoxia, ATP ([2]; 100 mg/kg I.P.) | % inhibition of the effects of hypoxia, EC (tissue energy content) ([2]; 100 mg/kg I.P.) | % inhibition of the effects of hypoxia, ATP ([2]; 30 mg/kg I.P.) | % inhibition of the effects of hypoxia, EC (tissue energy content) ([2]; 30 mg/kg I.P.) | Percentage increase in the survival time [1, 5] | % inhibition of the effects of hypoxia, ATP ([2]; 300 mg/kg I.P.) | % inhibition of the effects of hypoxia, EC (tissue energy content) ([2]; 300 mg/kg I.P.) | antihypoxic effect / protection in words [2] | also measured
O=C(CC1(c2ccccc2)C(=O)Oc2ccc(Cl)cc21)N1CCN(Cc2ccc3c(c2)OCO3)CC1 (stereo not shown) [Example 16, 2-(5-Chloro-2,3-dihydro-2-oxo-3-phenyl-3-benzofuranyl)-1-[4-(3,4-methylenedioxybenzyl)piperazinyl]-1-oxoethane] | 64% | 100% | 77.5% | 76.3% | – | – | – | – | – | – | Percentage increase in the survival time ([1]; 100 mg/kg I.P., 30 minutes before hypoxia, mice, listed as Ex. 16): +100%
O=C(CC1(c2ccccc2)C(=O)Oc2ccc(F)cc21)N1CCN(Cc2ccc3c(c2)OCO3)CC1 (stereo not shown) [Example 20, 2-(5-Fluoro-2,3-dihydro-2-oxo-3-phenyl-3-benzofuranyl)-1-[4-(3,4-methylenedioxybenzyl)piperazinyl]-1-oxoethane hydrochloride] | 104% | 100% | 70.2% | 71.5% | 56.9% | 61.3% | – | – | – | – | Percentage increase in the survival time ([1]; 100 mg/kg I.P., 30 minutes before hypoxia, mice, listed as Ex. 20, hydrochloride): +100%; change in vivo at 10 mg/kg ([1]; Mus musculus, ip, 10 mg/kg I.P., 30 minutes before hypoxia, mice, read-out: Percentage increase in the survival time): 52%; change in vivo at 300 mg/kg ([1]; Mus musculus, ip, 300 mg/kg I.P., 30 minutes before hypoxia, mice, read-out: Percentage increase in the survival time): 128%
CN(C)CCOC(=O)COc1ccc(Cl)cc1 [Meclofenoxate, meclofenoxate, reference compound] | – | – | – | – | – | – | +22% | 59.7% | 69.6% | – | change in vivo at 30 mg/kg [1, 6]: 4%; change in vivo at 100 mg/kg [1, 6]: 22%; change in vivo at 600 mg/kg [1, 6]: 190%
NC(=O)CN1CCCC1=O [Piracetam, piracetam, reference compound] | – | 11% | – | – | – | – | +11% | – | 1.6% | only very little protection | change in vivo at 1000 mg/kg ([1]; Mus musculus, ip, 1000 mg/kg I.P., 30 minutes before hypoxia, mice, read-out: Percentage increase in the survival time): 25%
Cc1ncc(CSSCc2cnc(C)c(O)c2CO)c(CO)c1O [Pyritinol, pyritinol] | 13% | 27% | 23.3% | 35.2% | 11.1% | 16.6% | +27% | 90.4% | 85.4% | distinct antihypoxic effect | significance of the protection (brain survival time) ([1]; 100 mg/kg, mice): significant; change in vivo at 200 mg/kg ([1]; Mus musculus, ip, 200 mg/kg I.P., 30 minutes before hypoxia, mice, read-out: Percentage increase in the survival time): 77%; antihypoxic effect in words ([2]; 100 mg/kg): only a more modest effect; % inhibition of the effects of hypoxia, ATP [2, 7]: 23%; % inhibition of the effects of hypoxia, EC (tissue energy content) [2, 7]: 35%
